pIC50: −log10 of the molar value.
System: 945468-187-T-J2-PDC spheroids viability
Assay: Anticancer human tumor 945468-187-T-J2-PDC patient-derived rectal carcinoma cell line growth inhibition [PI3K]
Details: spheroids with HUVEC and MSC; for pIC50: curve of first compound; for viability, T/C: stronger effect = lower value
Summary of the method: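 Spheroid viability read-out. Co-cultures contained the tumor line plus HUVEC and human MSCs. Each agent was paired with a PI3K inhibitor (inavolisib, alpelisib, duvelisib, copanlisib) across half-log dilutions starting at clinical Cmax, or at 10 microM when Cmax was unknown.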

[1] = second compound 0.0316 µM, first compound 0.0316 µM
[2] = second compound 0.0316 µM, first compound 0.1 µM
[3] = second compound 0.1 µM, first compound 0.0316 µM
[4] = second compound 0.1 µM, first compound 0.1 µM
[5] = second compound 0.316 µM, first compound 0.0316 µM
[6] = second compound 0.316 µM, first compound 0.1 µM
[7] = second compound 1 µM, first compound 0.0316 µM
[8] = second compound 1 µM, first compound 0.1 µM
[9] = second compound 3.16 µM, first compound 0.0316 µM
[10] = second compound 3.16 µM, first compound 0.1 µM
[11] = second compound 10 µM, first compound 0.0316 µM
[12] = second compound 10 µM, first compound 0.1 µM
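Note: spheroids exposed to compounds for seven days before reading.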

CC(=O)c1c(C)c2cnc(Nc3ccc(N4CCNCC4)cn3)nc2n(C2CCCC2)c1=O + Cc1nc(NC(=O)N2CCCC2C(N)=O)sc1-c1ccnc(C(C)(C)C(F)(F)F)c1
pIC50 (second compound 0.0316 µM): < 7.00 | pIC50 (second compound 0.1 µM): < 7.00 | pIC50 (second compound 0.316 µM): < 7.00 | pIC50 (second compound 1 µM): < 7.00 | pIC50 (second compound 3.16 µM): < 7.00 | pIC50 (second compound 10 µM): < 7.00 | viability, T/C (second compound 0.0316 µM, first compound 0.000316 µM): 79.2% | viability, T/C (second compound 0.0316 µM, first compound 0.001 µM): 88.4% | viability, T/C (second compound 0.0316 µM, first compound 0.00316 µM): 89.4% | viability, T/C (second compound 0.0316 µM, first compound 0.01 µM): 121% | viability, T/C [1]: 79.5% | viability, T/C [2]: 98.2% | viability, T/C (second compound 0.1 µM, first compound 0.000316 µM): 86.1% | viability, T/C (second compound 0.1 µM, first compound 0.001 µM): 84.2% | viability, T/C (second compound 0.1 µM, first compound 0.00316 µM): 89.6% | viability, T/C (second compound 0.1 µM, first compound 0.01 µM): 84.1% | viability, T/C [3]: 110% | viability, T/C [4]: 103% | viability, T/C (second compound 0.316 µM, first compound 0.000316 µM): 93.7% | viability, T/C (second compound 0.316 µM, first compound 0.001 µM): 107% | viability, T/C (second compound 0.316 µM, first compound 0.00316 µM): 95.5% | viability, T/C (second compound 0.316 µM, first compound 0.01 µM): 88.6% | viability, T/C [5]: 118% | viability, T/C [6]: 136% | viability, T/C (second compound 1 µM, first compound 0.000316 µM): 118% | viability, T/C (second compound 1 µM, first compound 0.001 µM): 110% | viability, T/C (second compound 1 µM, first compound 0.00316 µM): 75.7% | viability, T/C (second compound 1 µM, first compound 0.01 µM): 78% | viability, T/C [7]: 94.9% | viability, T/C [8]: 90.3% | viability, T/C (second compound 3.16 µM, first compound 0.000316 µM): 79.2% | viability, T/C (second compound 3.16 µM, first compound 0.001 µM): 71.7% | viability, T/C (second compound 3.16 µM, first compound 0.00316 µM): 82.8% | viability, T/C (second compound 3.16 µM, first compound 0.01 µM): 75.3% | viability, T/C [9]: 83% | viability, T/C [10]: 78.2% | viability, T/C (second compound 10 µM, first compound 0.000316 µM): 83% | viability, T/C (second compound 10 µM, first compound 0.001 µM): 66.7% | viability, T/C (second compound 10 µM, first compound 0.00316 µM): 78% | viability, T/C (second compound 10 µM, first compound 0.01 µM): 64.5% | viability, T/C [11]: 92.7% | viability, T/C [12]: 76.3%

CNC(=O)c1ccc(N2C(=S)N(c3ccc(C#N)c(C(F)(F)F)c3)C(=O)C2(C)C)cc1F + Cc1nc(NC(=O)N2CCCC2C(N)=O)sc1-c1ccnc(C(C)(C)C(F)(F)F)c1
pIC50 (second compound 0.0316 µM): < 5.00 | pIC50 (second compound 0.1 µM): < 5.00 | pIC50 (second compound 0.316 µM): < 5.00 | pIC50 (second compound 1 µM): < 5.00 | pIC50 (second compound 3.16 µM): < 5.00 | pIC50 (second compound 10 µM): < 5.00 | viability, T/C [1]: 116% | viability, T/C [2]: 103% | viability, T/C (second compound 0.0316 µM, first compound 0.316 µM): 88.8% | viability, T/C (second compound 0.0316 µM, first compound 1 µM): 106% | viability, T/C (second compound 0.0316 µM, first compound 3.16 µM): 108% | viability, T/C (second compound 0.0316 µM, first compound 10 µM): 102% | viability, T/C [3]: 95.4% | viability, T/C [4]: 82% | viability, T/C (second compound 0.1 µM, first compound 0.316 µM): 91.3% | viability, T/C (second compound 0.1 µM, first compound 1 µM): 95.5% | viability, T/C (second compound 0.1 µM, first compound 3.16 µM): 102% | viability, T/C (second compound 0.1 µM, first compound 10 µM): 85.7% | viability, T/C [5]: 108% | viability, T/C [6]: 105% | viability, T/C (second compound 0.316 µM, first compound 0.316 µM): 91.5% | viability, T/C (second compound 0.316 µM, first compound 1 µM): 118% | viability, T/C (second compound 0.316 µM, first compound 3.16 µM): 85.5% | viability, T/C (second compound 0.316 µM, first compound 10 µM): 92.6% | viability, T/C [7]: 93.3% | viability, T/C [8]: 86.2% | viability, T/C (second compound 1 µM, first compound 0.316 µM): 110% | viability, T/C (second compound 1 µM, first compound 1 µM): 79.8% | viability, T/C (second compound 1 µM, first compound 3.16 µM): 78.4% | viability, T/C (second compound 1 µM, first compound 10 µM): 92.9% | viability, T/C [9]: 81.1% | viability, T/C [10]: 85.8% | viability, T/C (second compound 3.16 µM, first compound 0.316 µM): 84.7% | viability, T/C (second compound 3.16 µM, first compound 1 µM): 83% | viability, T/C (second compound 3.16 µM, first compound 3.16 µM): 89% | viability, T/C (second compound 3.16 µM, first compound 10 µM): 83.6% | viability, T/C [11]: 83.1% | viability, T/C [12]: 68.5% | viability, T/C (second compound 10 µM, first compound 0.316 µM): 74.1% | viability, T/C (second compound 10 µM, first compound 1 µM): 73.5% | viability, T/C (second compound 10 µM, first compound 3.16 µM): 72.6% | viability, T/C (second compound 10 µM, first compound 10 µM): 63.5%
